For 51 compounds, Phospholipidosis results are on record in ChEMBL document CHEMBL1697821, “Development of a phospholipidosis database and predictive quantitative structure-activity relationship (QSAR) models” (Toxicol Mech Methods, 2008).

*1 amine or outer side, *2 acyl side, *3 side chain or, on linkers, in order; H or OH if unused. Where a SMILES comes first, the peptide text is derived from it. Bridges are numbered along the chain shown (N, C = ends). [ ]: non-standard residue; d: D form. The star is where a group is joined. X1 = NC1=N[C@@H]([C@H](N[*:1])C(=O)[*:2])C[C@H](O)N1; ΔAla(Z-3-ureido) = NC(=O)N/C=C(\N)C(=O)O; β3hOrn = NCCC[C@H](N)CC(=O)*; Dap = NC[C@H](N)C(=O)O

The subject of this data set is Phospholipidosis. The data set is described as follows: Literature-mined public compounds from Kruhlak et al phospholipidosis modelling dataset.
`NC(=O)C[S+]([O-])C(c1ccccc1)c1ccccc1` (stereo unspecified) [MODAFINIL]: the Phospholipidosis result is given as “Negative: based on the absence of positive reported data from WMDD”. Regarding `C[C@]12C=CC(=O)C=C1C(Cl)=C[C@@H]1[C@@H]2[C@@H](O)C[C@@]2(C)[C@H]1CC[C@]2(O)C(=O)CO` [CLOPREDNOL], the Phospholipidosis entry was “Negative: based on the absence of positive reported data from WMDD”. Regarding `CCCCc1ncc(/C=C(\Cc2cccs2)C(=O)O)n1Cc1ccc(C(=O)O)cc1` [EPROSARTAN], the Phospholipidosis entry is “Negative: based on the absence of positive reported data from WMDD”.

Turning to `CN(C)CCC=C1c2ccccc2CCc2ccccc21` [AMITRIPTYLINE], the Phospholipidosis entry is recorded as “Positive: strong inducer confirmed by electron microscopy”. For the compound `CN(C)C(=O)CCCOC(=O)C(C)(C)Oc1ccc(Cl)cc1` [CLOFIBRIDE], the Phospholipidosis entry is listed as “Negative: based on the absence of positive reported data from WMDD”.

On to `CC[N+](C)(C)Cc1ccccc1Br.Cc1ccc(S(=O)(=O)[O-])cc1` [BRETYLIUM TOSYLATE], for which the Phospholipidosis entry is recorded as “Negative: based on the absence of positive reported data from WMDD”. As to `CS(=O)(=O)c1ccc([C@@H](O)[C@@H](CO)NC(=O)C(Cl)Cl)cc1` [THIAMPHENICOL], the Phospholipidosis entry was “Negative: based on the absence of positive reported data from WMDD”. As to `CN1CCN(C2=Nc3ccccc3Sc3ccc(Cl)cc32)CC1` [CLOTHIAPINE], the Phospholipidosis entry was “Negative: based on the absence of positive reported data from WMDD”.

Regarding `C[C@@H]1C/C=C/C=C/C=C/C=C/[C@H](O[C@@H]2O[C@H](C)[C@@H](O)[C@H](N)[C@@H]2O)C[C@@H]2O[C@](O)(C[C@@H](O)C[C@H]3O[C@@H]3/C=C/C(=O)O1)C[C@H](O)[C@H]2C(=O)O` [NATAMYCIN], the Phospholipidosis entry is on record as “Negative: based on the absence of positive reported data from WMDD”. For `CN[C@@H]1[C@@H](O)[C@@H](O[C@@H]2[C@@H](O)[C@H](O[C@H]3O[C@H](C(C)N)CC[C@H]3N)[C@@H](N)C[C@H]2N)OC[C@]1(C)O` (stereo partly specified) [GENTAMICIN C2] the value was “Positive: strong inducer confirmed by electron microscopy”. On to `Nc1nc(N)c2nc(CNc3ccc(C(=O)N[C@@H](CCC(=O)O)C(=O)O)cc3)cnc2n1` [AMINOPTERIN], for which the Phospholipidosis result is listed as “Negative: based on the absence of positive reported data from WMDD”. Turning to `O=[N+]([O-])O[C@@H]1CO[C@H]2[C@@H]1OC[C@@H]2O` [ISOSORBIDE MONONITRATE], the Phospholipidosis entry was “Negative: based on the absence of positive reported data from WMDD”. Regarding `COc1ccc2[nH]c([S+]([O-])Cc3ncc(C)c(OC)c3C)nc2c1` (stereo unspecified) [OMEPRAZOLE], the Phospholipidosis result is recorded as “Negative: based on the absence of positive reported data from WMDD”.

Take `CCc1cc2c(s1)-n1c(C)nnc1CN=C2c1ccccc1Cl` [ETIZOLAM]: the Phospholipidosis result is on record as “Negative: based on the absence of positive reported data from WMDD”. Turning to `CN(C)CCON=C1c2ccccc2CCc2ccccc21` [NOXIPTILINE], the Phospholipidosis result is “Positive: weak inducer based on presence of foamy macrophages and cytoplasmic vacuolations”.

Turning to `CCN(CC)CCNc1ccc(C)c2sc3ccccc3c(=O)c12` [LUCANTHONE], the Phospholipidosis entry was “Negative: based on the absence of positive reported data from WMDD”. For the compound `CCC(Br)(CC)C(=O)NC(N)=O` [CARBROMAL], the Phospholipidosis entry was “Negative: based on the absence of positive reported data from WMDD”. For `COc1cccc2c1C(=O)c1c(O)c3c(c(O)c1C2=O)C[C@@](O)(/C(C)=N/NC(=O)c1ccccc1)C[C@@H]3O[C@H]1C[C@H](N)[C@H](O)[C@H](C)O1` [ZORUBICIN], the Phospholipidosis entry is “Negative: based on the absence of positive reported data from WMDD”. `COc1ccc2cc1Oc1cc3c(cc1OC)CC[N+](C)(C)[C@H]3Cc1ccc(cc1)Oc1c(OC)c(OC)cc3c1[C@@H](C2)[N+](C)(C)CC3` [METOCURINE]: the Phospholipidosis entry is recorded as “Negative: based on the absence of positive reported data from WMDD”. Take `CC(C)N(CCC(CCN1CCCCC1)(C(N)=O)c1ccccc1Cl)C(C)C` (stereo unspecified) [DISOBUTAMIDE]: the Phospholipidosis result is recorded as “Positive: strong inducer confirmed by electron microscopy”. As to `CCCC1C(=O)N2C(N(C)C)=Nc3ccc(C)cc3N2C1=O` (stereo unspecified) [APAZONE], the Phospholipidosis result is recorded as “Negative: based on the absence of positive reported data from WMDD”.

As for `O=C1CN(/N=C/c2ccc([N+](=O)[O-])o2)C(=O)N1` [NITROFURANTOIN], the Phospholipidosis entry is reported as “Negative: based on the absence of positive reported data from WMDD”. Take `CC(CCc1ccccc1)NCC(O)c1ccc(O)c(C(N)=O)c1` (stereo unspecified) [LABETALOL]: the Phospholipidosis result is “Positive: weak inducer based on presence of foamy macrophages and cytoplasmic vacuolations”. Regarding `Cc1cc(C)cc(OCC2CNC(=O)O2)c1` (stereo unspecified) [METAXALONE], the Phospholipidosis result is listed as “Negative: based on the absence of positive reported data from WMDD”.

As to `CC1COc2c(N3CCN(C)CC3)c(F)cc3c(=O)c(C(=O)O)cn1c23` (stereo unspecified) [OFLOXACIN], the Phospholipidosis result is “Negative: confirmed by electron microscopy”. For the compound `Cn1c(=O)c2c(ncn2CC2OCCO2)n(C)c1=O` [DOXOFYLLINE], the Phospholipidosis entry was “Negative: based on the absence of positive reported data from WMDD”.

With `Cc1cc2c(s1)Nc1ccccc1N=C2N1CCN(C)CC1` [OLANZAPINE], the Phospholipidosis result is reported as “Negative: based on the absence of positive reported data from WMDD”.

`CC(=O)Oc1ccc(C(=C2CCCCC2)c2ccc(OC(C)=O)cc2)cc1` [CYCLOFENIL]: the Phospholipidosis entry is on record as “Negative: based on the absence of positive reported data from WMDD”. On to `NCCC[C@H](N)CC(=O)N[C@H]1CNC(=O)[C@H]([C@H]2C[C@H](O)NC(N)=N2)NC(=O)/C(=C/NC(N)=O)NC(=O)[C@H](CO)NC(=O)[C@H](CO)NC1=O` [VIOMYCIN] (β3hOrn-[Dap]SS[ΔAla(Z-3-ureido)][X1]; lactam 1-C), for which the Phospholipidosis result is recorded as “Negative: based on the absence of positive reported data from WMDD”. Turning to `CN(C)[C@@H]1C(O)=C(C(N)=O)C(=O)[C@@]2(O)C(O)=C3C(=O)c4c(O)cccc4[C@@](C)(O)[C@H]3C[C@@H]12` [TETRACYCLINE], the Phospholipidosis entry is recorded as “Negative: confirmed by electron microscopy”. Regarding `NCCS` [CYSTEAMINE], the Phospholipidosis result is given as “Negative: based on the absence of positive reported data from WMDD”. In the case of `Cc1cc2nc3c(=O)[nH]c(=O)nc-3n(C[C@H](O)[C@H](O)[C@H](O)CO)c2cc1C` [RIBOFLAVIN] it was “Negative: based on the absence of positive reported data from WMDD”; in that of `CCCC[C@@H]1CC(=O)[C@]2(O)O[C@@H]3[C@@H](NC)[C@@H](O)[C@@H](NC)[C@H](O)[C@H]3O[C@@H]2O1.O=S(=O)(O)O`, “Positive: strong inducer confirmed by electron microscopy”.

As to `OC[C@@H](O)[C@@H](O)[C@H](O)[C@@H](O)CO` [SORBITOL], the Phospholipidosis entry is reported as “Negative: based on the absence of positive reported data from WMDD”. For the compound `CNCCC(Oc1ccc(C(F)(F)F)cc1)c1ccccc1` (stereo unspecified) [FLUOXETINE], the Phospholipidosis entry is “Positive: strong inducer confirmed by electron microscopy”. For `Nc1nc(=O)[nH]cc1F` [FLUCYTOSINE], the Phospholipidosis result was “Negative: based on the absence of positive reported data from WMDD”.

For the compound `O=C1OC(c2ccc(O)c(S(=O)(=O)O)c2)(c2ccc(O)c(S(=O)(=O)O)c2)c2c(Br)c(Br)c(Br)c(Br)c21` [SULFOBROMOPHTHALEIN], the Phospholipidosis entry is listed as “Negative: based on the absence of positive reported data from WMDD”. With `Clc1ccc(C(c2ccccc2)N2CCNCC2)cc1` (stereo unspecified) [NORCHLORCYCLIZINE], the Phospholipidosis entry is reported as “Positive: strong inducer confirmed by electron microscopy”.

With `NC(=O)c1cc[n+](CC2=C(C(=O)O)N3C(=O)[C@@H](NC(=O)[C@@H](c4ccccc4)S(=O)(=O)[O-])[C@H]3SC2)cc1` [CEFSULODIN], the Phospholipidosis result is given as “Negative: based on the absence of positive reported data from WMDD”.

Consider `CCCC(C)C1(CC)C(=O)NC(=S)NC1=O` (stereo unspecified) [THIOPENTAL], for which the Phospholipidosis entry was “Negative: based on the absence of positive reported data from WMDD”.

`O=C(NC1CCN(CCc2c[nH]c3ccccc23)CC1)c1ccccc1` [INDORAMIN]: the Phospholipidosis result is reported as “Positive: strong inducer confirmed by electron microscopy”. Take `CN[C@@H]1[C@@H](O)[C@@H](O[C@@H]2[C@@H](O)[C@H](O[C@H]3O[C@H]([C@@H](C)NC)CC[C@H]3N)[C@@H](N)C[C@H]2N)OC[C@]1(C)O` [GENTAMICIN C1]: the Phospholipidosis result is recorded as “Positive: strong inducer confirmed by electron microscopy”. Consider `NC(=O)c1ccccc1` [BENZAMIDE], for which the Phospholipidosis result is “Positive: weak inducer based on presence of foamy macrophages and cytoplasmic vacuolations”. Regarding `CN(C)CCCC1c2ccccc2Nc2ccc(Cl)cc21` (stereo unspecified) [CLOMACRAN], the Phospholipidosis entry is reported as “Positive: strong inducer confirmed by electron microscopy”. Consider `CN(C)CCC=C1c2ccccc2C=Cc2c(Cl)cccc21`, for which the Phospholipidosis entry is recorded as “Positive: strong inducer confirmed by electron microscopy”. With `CC(=O)O.C[C@H]1C[C@@H]2[C@H]([C@@H](O)C[C@@]3(C)[C@H]2CC[C@]3(O)C(=O)CO)[C@@]2(C)C=CC(=O)C=C12`, the Phospholipidosis result was “Negative: based on the absence of positive reported data from WMDD”.

As for `CCN(CC)CCn1nc2c3c(c(C)ccc31)Sc1cc(Cl)ccc1-2`, the Phospholipidosis result is listed as “Positive: strong inducer confirmed by electron microscopy”. As to `CCOC(=O)C1=C(C)NC(C)=C(C(=O)OC)C1c1cccc([N+](=O)[O-])c1` (stereo unspecified) [NITRENDIPINE], the Phospholipidosis entry is reported as “Negative: based on the absence of positive reported data from WMDD”. In the case of `CN1CCN(Cc2nc3cccc4c3c([n+]2[O-])-c2ccccc2-4)CC1`, the Phospholipidosis result was “Positive: weak inducer based on presence of foamy macrophages and cytoplasmic vacuolations”. As to `NNC(=O)c1ccncc1` [ISONIAZID], the Phospholipidosis result is on record as “Negative: based on the absence of positive reported data from WMDD”. As for `CC[C@H]1OC(=O)[C@H](C)[C@@H](O[C@H]2C[C@@](C)(OC)[C@@H](O)[C@H](C)O2)[C@H](C)[C@@H](O[C@@H]2O[C@H](C)C[C@H](N(C)C)[C@H]2O)[C@](C)(O)C[C@@H](C)CN(C)[C@H](C)[C@@H](O)[C@]1(C)O` [AZITHROMYCIN], the Phospholipidosis result was “Positive: weak inducer based on presence of foamy macrophages and cytoplasmic vacuolations”.
